Results published in US7058616B1, “Method and system for predicting resistance of a disease to a therapeutic agent using a neural network” (Virco Bvba, priority 2000, dated 2006).

Tested on: HIV-1
Experiment: MT-4 cell viral cytopathic effect protection assay, phenotypic susceptibility of patient recombinant virus
Format: cell-based
Method: Phenotypic susceptibility was determined using a MT-4 cell viral cytopathic effect protection assay. See, e.g., Kashiwase et al., Chemotherapy 45(1):48–55 (1999), expressly incorporated herein by reference; Larder et al., Antimicrob. Agents Chemother. 43(8):1961–1967 (1999).

[1] = Table 13/14 sample 1: 10I,71V,73S,84V,90M, 63P,85V,93L

For CC(C)(C)NC(=O)[C@@H]1C[C@@H]2CCCC[C@@H]2CN1C[C@@H](O)[C@H](Cc1ccccc1)NC(=O)[C@H](CC(N)=O)NC(=O)c1ccc2ccccc2n1 [Saquinavir], the actual phenotype [1] was “R (if the value is greater than 10, it is considered to be ‘resistant’)”, the actual phenotype (Table 13/14 sample 9: 10I,46L,54V,71V,82A,90M, 63P,93L) was “S (A fold resistance of less than or equal to 4 is considered to be ‘sensitive’)” and the actual phenotype (Table 13/14 sample 11: 10I,46L,54V,71V,77I,82A,90M, 55R,58E,63P,93L) was “R (if the value is greater than 10, it is considered to be ‘resistant’)”. For the same molecule, the actual phenotype (Table 13/14 sample 19: 54V,71V,82A, 63P,93L) was “I (greater than 4 and less than 10 is considered to be ‘intermediate’)”.

For Nc1ccn([C@H]2CC[C@@H](CO)O2)c(=O)n1 [DDC], the “actual phenotype resistance level” value (Table 3 testing sample 1) was “S/S (A fold resistance of less than or equal to 4 is considered to be “sensitive,”)”, the “actual phenotype resistance level” value (Table 3 testing sample 2) was “S/S (A fold resistance of less than or equal to 4 is considered to be “sensitive,”)” and the “actual phenotype resistance level” value (Table 3 testing sample 3) was “S/S (A fold resistance of less than or equal to 4 is considered to be “sensitive,”)”. For the same molecule, the “actual phenotype resistance level” value (Table 3 testing sample 4) was “S/S (A fold resistance of less than or equal to 4 is considered to be “sensitive,”)”, the “actual phenotype resistance level” value (Table 3 testing sample 5) was “S/S (A fold resistance of less than or equal to 4 is considered to be “sensitive,”)” and the “actual phenotype resistance level” value (Table 3 testing sample 6) was “I (greater than 4 and less than 10 is considered to be “intermediate,”)”. The “actual phenotype resistance level” value (Table 3 testing sample 7) was “S/S (A fold resistance of less than or equal to 4 is considered to be “sensitive,”)”, the “actual phenotype resistance level” value (Table 3 testing sample 8) was “S (A fold resistance of less than or equal to 4 is considered to be “sensitive,”)” and the “actual phenotype resistance level” value (Table 3 testing sample 9) was “S/S (A fold resistance of less than or equal to 4 is considered to be “sensitive,”)”. The “actual phenotype resistance level” value (Table 3 testing sample 10) was “S/S (A fold resistance of less than or equal to 4 is considered to be “sensitive,”)”.

Cc1c(O)cccc1C(=O)N[C@@H](CSc1ccccc1)[C@H](O)CN1C[C@H]2CCCC[C@H]2C[C@H]1C(=O)NC(C)(C)C [Nelfinavir] was tested, and the “actual phenotype resistance level” value (PI test sample 2) was “R/R (if the value is greater than 10, it is considered to be ‘resistant’)”, the “actual phenotype resistance level” value (PI test sample 3) was “R/R (if the value is greater than 10, it is considered to be ‘resistant’)” and the “actual phenotype resistance level” value (PI test sample 4) was “R/R (if the value is greater than 10, it is considered to be ‘resistant’)”. The “actual phenotype resistance level” value (PI test sample 5) was “R/R (if the value is greater than 10, it is considered to be ‘resistant’)”, the “actual phenotype resistance level” value (PI test sample 7) was “R/R (if the value is greater than 10, it is considered to be ‘resistant’)” and the “actual phenotype resistance level” value (PI test sample 8) was “R/R (if the value is greater than 10, it is considered to be ‘resistant’)”. The “actual phenotype resistance level” value (PI test sample 9) was “R/R (if the value is greater than 10, it is considered to be ‘resistant’)”, the “actual phenotype resistance level” value (PI test sample 10) was “R (if the value is greater than 10, it is considered to be ‘resistant’)” and the “actual phenotype resistance level” value (PI test sample 11) was “I/I (greater than 4 and less than 10 is considered to be ‘intermediate’)”. The “actual phenotype resistance level” value (PI test sample 13) was “R/R (if the value is greater than 10, it is considered to be ‘resistant’)”, the “actual phenotype resistance level” value (PI test sample 14) was “R/R (if the value is greater than 10, it is considered to be ‘resistant’)” and the “actual phenotype resistance level” value (PI test sample 15) was “R/R (if the value is greater than 10, it is considered to be ‘resistant’)”. For the same molecule, the “actual phenotype resistance level” value (PI test sample 16) was “R/R (if the value is greater than 10, it is considered to be ‘resistant’)”, the “actual phenotype resistance level” value (PI test sample 17) was “R/R (if the value is greater than 10, it is considered to be ‘resistant’)” and the “actual phenotype resistance level” value (PI test sample 18) was “R/R (if the value is greater than 10, it is considered to be ‘resistant’)”. The “actual phenotype resistance level” value (PI test sample 19) was “R (if the value is greater than 10, it is considered to be ‘resistant’)”, the “actual phenotype resistance level” value (PI test sample 19, listed as NFV) was “R/R (if the value is greater than 10, it is considered to be ‘resistant’)” and the “actual phenotype resistance level” value (PI test sample 20) was “R/R (if the value is greater than 10, it is considered to be ‘resistant’)”. For the same molecule, the “actual phenotype resistance level” value (PI test sample 21) was “R/R (if the value is greater than 10, it is considered to be ‘resistant’)”, the “actual phenotype resistance level” value (PI test sample 22) was “R (if the value is greater than 10, it is considered to be ‘resistant’)” and the “actual phenotype resistance level” value (PI test sample 23) was “R/R (if the value is greater than 10, it is considered to be ‘resistant’)”. For the same molecule, the “actual phenotype resistance level” value (PI test sample 24) was “R/R (if the value is greater than 10, it is considered to be ‘resistant’)”, the “actual phenotype resistance level” value (PI test sample 25) was “R/R (if the value is greater than 10, it is considered to be ‘resistant’)” and the “actual phenotype resistance level” value (PI test sample 26) was “R/R (if the value is greater than 10, it is considered to be ‘resistant’)”. For the same molecule, the “actual phenotype resistance level” value (PI test sample 32) was “R/R (if the value is greater than 10, it is considered to be ‘resistant’)”, the “actual phenotype resistance level” value (PI test sample 33) was “R/R (if the value is greater than 10, it is considered to be ‘resistant’)” and the “actual phenotype resistance level” value (PI test sample 34) was “R/R (if the value is greater than 10, it is considered to be ‘resistant’)”. For the same molecule, the “actual phenotype resistance level” value (PI test sample 35) was “R/R (if the value is greater than 10, it is considered to be ‘resistant’)”, the “actual phenotype resistance level” value (PI test sample 36) was “R/R (if the value is greater than 10, it is considered to be ‘resistant’)” and the “actual phenotype resistance level” value (PI test sample 37) was “R/R (if the value is greater than 10, it is considered to be ‘resistant’)”. For the same molecule, the “actual phenotype resistance level” value (PI test sample 38) was “R/R (if the value is greater than 10, it is considered to be ‘resistant’)”, the “actual phenotype resistance level” value (PI test sample 39) was “R/R (if the value is greater than 10, it is considered to be ‘resistant’)” and the “actual phenotype resistance level” value (PI test sample 40) was “R/R (if the value is greater than 10, it is considered to be ‘resistant’)”. For the same molecule, the “actual phenotype resistance level” value (PI test sample 41) was “R/R (if the value is greater than 10, it is considered to be ‘resistant’)”, the “actual phenotype resistance level” value (PI test sample 42) was “I/I (greater than 4 and less than 10 is considered to be ‘intermediate’)” and the “actual phenotype resistance level” value (PI test sample 44) was “R/R (if the value is greater than 10, it is considered to be ‘resistant’)”. For the same molecule, the “actual phenotype resistance level” value (PI test sample 45) was “R/R (if the value is greater than 10, it is considered to be ‘resistant’)”, the “actual phenotype resistance level” value (Table 3 testing sample 1) was “S/S (A fold resistance of less than or equal to 4 is considered to be “sensitive,”)” and the “actual phenotype resistance level” value (Table 3 testing sample 4) was “R/R (if the value is greater than 10, it is considered to be “resistant.”)”. The “actual phenotype resistance level” value (Table 3 testing sample 5) was “R/R (if the value is greater than 10, it is considered to be “resistant.”)”, the “actual phenotype resistance level” value (Table 3 testing sample 6) was “R/R (if the value is greater than 10, it is considered to be “resistant.”)” and the “actual phenotype resistance level” value (Table 3 testing sample 7) was “S/S (A fold resistance of less than or equal to 4 is considered to be “sensitive,”)”. For the same molecule, the “actual phenotype resistance level” value (Table 3 testing sample 8) was “R/R (if the value is greater than 10, it is considered to be “resistant.”)”, the “actual phenotype resistance level” value (Table 3 testing sample 10) was “R/R (if the value is greater than 10, it is considered to be “resistant.”)” and the actual phenotype [1] was “R (if the value is greater than 10, it is considered to be ‘resistant’)”. For the same molecule, the actual phenotype (Table 13/14 sample 3: 10I, 36V,93L) was “R (if the value is greater than 10, it is considered to be ‘resistant’)”, the actual phenotype (Table 13/14 sample 5: 10V,30N, 13V,63P) was “R (if the value is greater than 10, it is considered to be ‘resistant’)” and the actual phenotype (Table 13/14 sample 7: 71V,73S,90M, 20I,63P) was “R (if the value is greater than 10, it is considered to be ‘resistant’)”. The actual phenotype (Table 13/14 sample 10: 46I,71V,73S,90M, 20I,63P,93L) was “R (if the value is greater than 10, it is considered to be ‘resistant’)”, the actual phenotype (Table 13/14 sample 18: 36I,71T,90M, 63P,93L) was “R (if the value is greater than 10, it is considered to be ‘resistant’)” and the actual phenotype (Table 13/14 sample 20: 77I,88S, 13V, 63P, 93L) was “R (if the value is greater than 10, it is considered to be ‘resistant’)”.
